# Laboratory results reported in patent US9804176B2, “Assays for vitamin D epimers” (Siemens Healthcare Diagnostics Inc., priority 2014, dated 2017).
# “And” between values parts separate entries of the source, which are not always exact repeats. Equal values may be shown once.
# System: biotinylated monoclonal anti-25OH vitamin D antibody
# Experiment: 25OH Vitamin D LOCI immunoassay, 3-epimer cross-reactivity, no anti-3-epimer antibody added
# Format: binding, sheep
# Settings: No anti-3-epimer VD Ab added; for Avg. Cross-reactivity: average of ten patient sera spiked with 100 ng/mL 3-epimer D3
# Protocol: The 25OH Vitamin D (25(OH)D) immunoassay format employed was a homogeneous competitive chemiluminescent immunoassay based on LOCI® assay technology. The assay was performed on the Siemens Dimension® EXL automated integrated clinical chemistry system (Siemens Healthcare Diagnostics Inc., Deerfield, Ill.). The assay measured the total concentration of 25(OH)D2 and/or 25(OH)D3 in serum and plasma samples. The LOCI® assay reagents included a releasing reagent, two synthetic bead reagents and a biotinylated monoclonal anti-25OH vitamin D antibody reagent. The first bead reagent (designated “Sensibeads”) was coated with streptavidin and contained a photosensitive dye. The second bead reagent (designated “Chemibeads”) was coated with a 25(OH)D3 analog and contained chemiluminescent dye. Sample was incubated with the releasing reagent to release 25(OH)D molecules including 3-epimeric compounds from vitamin D binding proteins. The reaction mixture was then incubated with biotinylated antibody to form a 25(OH)D-biotinylated antibody complex. […] Chemibeads were added to bind excess free biotinylated antibody. Sensibeads were then added to bind to the biotin portion of the biotinylated antibody. Aggregates of Chemibead-analog/antibody-biotin/streptavidin-Sensibeads were formed as a result. […] The resulting chemiluminescent signal was measured at 612 nm and is inversely proportional to the concentration of total 25(OH)D in the sample.
# Biotinvlation of anti-25(OH)D antibody—NHS-PEO4-biotin (Pierce Chemical Company, Rockford Ill.) was coupled with the anti-25(OH)D antibody (a sheep monoclonal antibody from Bioventix, Farnham, Surrey, UK). […] The concentration was measured on UV A280. […]
# The effect of adding anti-3-epimer-VD antibody 8F10.1 (anti-3-epimer VD Ab) on the 3-epimer cross-reactivity for the assay is shown in Table 1. […] The 3-epimer cross-reactivity was calculated by the difference between 25(OH)D2 or 25(OH)D3 values with and without the spiked 3-epimer compound divided by the amount of added 3-epimer compound.
compound,measurement,setting,value
"C=C1CC[C@@H](O)C/C1=C/C=C1\CCC[C@]2(C)[C@@H]([C@H](C)CCCC(C)(C)O)CC[C@@H]12 [3-epimer D3, 3-epi-25-hydroxyvitamin D3]",Avg. Cross-reactivity,,13.7%
same,Avg. Cross-reactivity,listed as 3-epimer vitamin D3 compound,13.7%
same,Cross-Reactivity,individual patient serum spiked with 100 ng/mL 3-epimer D3,17.9% (2×) and 11.9% and 12.6% and 16.1% and 10.2% and 9.1% and 10.5% and 15.3% and 15.5%
